From patent publication US9782371B2, “Composition for promoting remyelination in nerve cells comprising 2,5-dihydroxybenzenesulfonic acid and use thereof” (Samsung Electronics Co., Ltd., priority 2015, dated 2017)

Columns and labels:
PMP22 = PMP22 protein expression by Western blotting in rat Schwann cells overexpressing human PMP22; assay type: cell-based
Experimental: Rat Schwann cells were inoculated at a concentration of about 10^5 cells/mL into each well of a 12-well plate including 2 mL of a Dulbecco's Modified Eagle's Medium (DMEM) containing 10% fetal bovine serum (FBS), 100 units/mL of penicillin, and 100 units/mL of streptomycin, and incubated in a 5%-CO2 incubator at about 37° C. to a cell density of about 60% to about 65%. […] Rat Schwann cells are often used in in vitro models for neuronal function and differentiation. The rat Schwann cells used herein were modified to consistently overexpress the human PMP22 gene by lentivital mediated integration of PMP22 into a chromosome and selective use of puromycin-resistant markers, thereby constructing a new rat Schwann PMP22 cell model. The rat Schwann cells (ATCC number; CRL-2768) were purchased from the American Type Culture Collection (ATCC).
After 2 mL of the culture medium was removed, the resulting rat Schwann cells were washed with phosphate buffered saline (PBS), followed by adding a lysis solution containing a 0.5% triton X-100 in PBS thereto, collecting the cells using a scraper, leaving the cells on ice for about 30 minutes, and then disrupting the cells. […]

[1] = system: myelin surrounding axons of the posterior lateral line nerves (PLLs); test: Remyelination of peripheral nervous system (PLL myelin) in MTZ-demyelinated transformed zebrafish, GFP-fluorescence confocal microscopy; assay type: in vivo, Zebrafish (Danio rerio)
Experimental: Transformed Zebrafish (Danio rerio) in which genes respectively encoding an Mbp:EGFP fusion protein and a Claudink:EGFP fusion protein that are specifically expressed in myelin and emit fluorescence by using promoters of a myelin basic protein (MBP) gene and a Claudink gene were prepared, by transforming Zebrafish cells with genes respectively encoding an Mbp:EGFP fusion protein and a Claudink:EGFP fusion protein. Specifically, the NfsB virulence gene encodes a nitroreductase (NTR) enzyme. […] However, when metronidazole (MTZ) is added to cells, the cells convert MTZ into a cytotoxic material by using NTR, which induces apoptosis. Genetically engineered zebrafish, i.e., transformed zebrafish that express the NfsB virulence gene specifically in differentiated oligodendrocytes and Schwann cells were prepared by using promoters of mbp and claudink genes that specifically operate in differentiated myelin to express myelin-specific genes bound to myelin, and using the Gal4-UAS transactivator system. Next, it was confirmed that the NfsB virulence gene was myelin-specifically expressed in the transformed zebrafish.
As a result, an animal model of demyelination that is induced in the presence of MTZ was established. Hereinafter, this animal model is also referred to as zebrafish (Mbp (or claudink):gal4::UAS:nfsB (NTR, toxin)::UAS:gfp). After removing the added MTZ substrate from the culture medium, the transformed zebrafish were then cultured in a culture medium free of MTZ for 1 day, followed by a recovery period. This study, described in greater detail below, confirmed that natural remyelination occurred in the demyelinated central nervous system and peripheral nervous system and that ES drug has an effect of promoting remyelination. […]

[2] = system: Mauthner axons and myelin in the central nervous system; test: Remyelination of central nervous system (Mauthner axons) in MTZ-demyelinated transformed zebrafish, g-ratio; assay type: in vivo, Zebrafish (Danio rerio); conditions: zebrafish ClaudinK line
Experimental: Transformed Zebrafish (Danio rerio) in which genes respectively encoding an Mbp:EGFP fusion protein and a Claudink:EGFP fusion protein that are specifically expressed in myelin and emit fluorescence by using promoters of a myelin basic protein (MBP) gene and a Claudink gene were prepared, by transforming Zebrafish cells with genes respectively encoding an Mbp:EGFP fusion protein and a Claudink:EGFP fusion protein. Specifically, the NfsB virulence gene encodes a nitroreductase (NTR) enzyme. […] However, when metronidazole (MTZ) is added to cells, the cells convert MTZ into a cytotoxic material by using NTR, which induces apoptosis. […]
FIG. 6 illustrates the results of GFP-originated fluorescence microscopy and red fluorescence microscopy with immunostaining by acetylated-tubulin that is expressed specific to axons, by using a confocal laser microscope on sections of Mauthner axons and myelin in the central nervous system of the zebrafish (ClaudinK:gal4::UAS:nfsB (NTR, toxin)::UAS:gfp) incubated under various conditions. […] The axon and fiber diameters were obtained by calculating the diameters from the intensities of GFP-originated fluorescence and red axonal fluorescence with the Image J program. […]

## CCNCC.O=S(=O)(O)c1cc(O)ccc1O [ethamsylate, diethyl ammonium 2,5-dihydroxybenzene sulfonic acid]
PMP22; 10 μM ethamsylate, incubation for 0.5, 1, 12, 24 and 48 hours, vs 0 hour control, FIG. 1 panel B
  expression level of PMP22 protein: decreased compared to the control group
PMP22; 0.1, 1, 10, 100 μM ethamsylate in DMSO, about 24 hours, vs DMSO control, FIG. 1 panel A, n=4
  amount of PMP22 protein expressed: decrease in the amount of PMP22 protein expressed
[1]; zebrafish Claudink line, 10 μM ES vs MTZ treated sample, FIGS. 4 and 5
  ratio of myelinated axons to total axons: significantly higher
[1]; zebrafish Claudink:gal4::UAS:nfsB::UAS:gfp, 10 μM ES after MTZ, FIG. 4
  remyelination of PLL myelin (GFP and acetylated-tubulin fluorescence): promote remyelination
[1]; zebrafish Mbp:gal4::UAS:nfsB::UAS:gfp, MTZ 4.5-6 dpf, washed, 10 μM ES 6-7 dpf (about 1 day), FIG. 3 panel D
  myelin in the peripheral nervous system (GFP-originated green fluorescence): completely remyelinated
[2]; Mauthner axons, 10 μM ethamsylate vs MTZ treatment group, FIG. 8
  g-ratio (diameter ratio of axon to nerve fiber): remarkably reduced g-ratio
[2]; incubated in presence of ethamsylate after MTZ, FIGS. 6 and 8
  regeneration or remyelination of demyelinated nerve cells in the central nervous system: remyelinated with a significantly higher efficiency
